This is an account of results in article PMC6000956, “Immunomodulatory activities of pixatimod: emerging nonclinical and clinical data, and its potential utility in combination with PD-1 inhibitors” (Journal for Immunotherapy of Cancer, 2018).

The subject of data set [1] is 4T1.2 tumors. In words: Flow cytometry of immune cells in 4T1.2 tumors and spleens (satellite groups, day 11). Format: in vivo, Balb/c mice. As for the experimental part: Female Balb/c mice (6–8 weeks) were obtained from the Walter & Eliza Hall Institute (Melbourne, Australia). Animal experiments were performed in accordance with institutional guidelines of the Peter MacCallum Cancer Centre. To determine the utility of pixatimod in combination with a PD-1 checkpoint inhibitor antibody (clone RMP1–14 or isotype control antibody 2A3, Bio-X-Cell, NH, USA), mice were inoculated with 1 × 10^5 4T1.2 cells into the mammary fatpad. One week later, mice with similar sized tumors (mean tumor volume 56 mm^3) were randomised into four groups (n = 6 mice per group): saline + isotype antibody, pixatimod + isotype antibody, saline + anti-PD-1 antibody and pixatimod + anti-PD-1 antibody. Pixatimod was administered at 15 mg/kg IP weekly for 3 weeks (days 1, 8 and 15) and anti-PD-1 or isotype antibody (200 μg) were given IP on days 1, 4, 8, 11 and 15. The experiment was ended on day 18 post treatment initiation (25 days post inoculation) due to emerging toxicities in all treatment groups (e.g. piloerection). […]
Immune cells from the collagenase (Collagenase IV, Worthington Biochemical Corporation, NJ, USA) processed tumors and spleens were analysed by flow cytometry using an LSR II analyser (BD Biosciences). […]
(In general: Flow cytometry measures light scatter and fluorescence of single cells or particles in a stream.)

In data set [2] the test system is NK cells. In words: NK cell activation in spleen by route of administration. The settings on record: 20 mg/kg IP, IV or SC, spleens 2 days later; similar magnitude irrespective of route. Format: in vivo, C57BL/6 mice. The procedure: To investigate the effect that pixatimod route of administration has upon the activity of this compound, C57BL/6 mice were treated with pixatimod 20 mg/kg intraperitoneally (IP), intravenously (IV) or subcutaneously (SC) and 2 days later, spleens were isolated to study the activation levels of NK cells for surface expression of CD69 or intracellular expression of IFN-γ. Antibodies were CD3ε (145-2C11), NK1.1 (PK136), CD69 (H1.2F3), IFN-γ (XMG1.2), hamster IgG1 isotype (G235–2356) and rat IgG1 isotype (R3–34) were from BD Biosciences (San Jose, CA, USA). Intracellular staining for IFN-γ was performed following ex vivo stimulation of splenocytes for 4 h with 20 ng/ml PMA and 50 ng/ml ionomycin in the presence of 5 μg/mL brefeldin A. Intracellular staining for IFN-γ was performed following treatment with Cytofix/Cytoperm (BD Biosciences) solution. Flow cytometric data were acquired using a FACSCanto flow cytometer (BD Biosciences), and events were analysed using FlowJo Version 9.9.6 software (TreeStar, Ashland, OR, USA).

The test system of data set [3] is rats. In words: Repeated weekly SC toxicology in rats (organ weights). It is filed as in vivo. The settings on record: weekly SC x5, 3, 12 and 48 mg/kg. The procedure:
(§1) Supplementary file 40425_2018_363_MOESM2_ESM.pptx: Additional file 2: Effect of pixatimod dosing on selected organ weights in beagle dogs (IV and SC) and rats (SC). Repeated weekly IV exposure (× 5) of pixatimod increases the relative weights of liver (A) and kidney (B) but not thymus (C) nor spleen (D) in beagle dogs. […] Data shown is for combined sexes. […] Study size, n = 15 for control and 48 mg/kg groups and n = 10 for 3 and 12 mg/kg groups. […] Study size, n = 5 for control and 20 mg/kg groups and n = 3 for 2.5 and 7.5 mg/kg groups. *P < 0.05, **P < 0.01, ***P < 0.001 versus control (Kruskal-Wallis test for the dog study, ANOVA followed by Dunnett’s comparison for the rat study). (PPTX 65 kb)

Data set [4] concerns beagle dogs. In words: Previous repeated weekly SC toxicology study in beagle dogs (organ weights). It is filed as in vivo. Particulars: weekly SC x5, 2.5, 7.5 and 20 mg/kg. As for the experimental part: as §1
Data set [5] has as its system advanced cancer patients. Details: method as in PMID 29531325. The settings on record: cited from earlier work.
On the set-up of data set [6]: method as in PMID 21285983. The settings on record: tumor-bearing immunocompetent mice; cited from earlier work.

Take `CC(C)CCC[C@@H](C)[C@H]1CC[C@H]2[C@@H]3CC[C@H]4C[C@@H](O[C@@H]5O[C@H](COS(=O)(=O)O)[C@@H](O[C@H]6O[C@H](COS(=O)(=O)O)[C@@H](O[C@H]7O[C@H](COS(=O)(=O)O)[C@@H](O[C@H]8O[C@H](COS(=O)(=O)O)[C@@H](OS(=O)(=O)O)[C@H](OS(=O)(=O)O)[C@H]8OS(=O)(=O)O)[C@H](OS(=O)(=O)O)[C@H]7OS(=O)(=O)O)[C@H](OS(=O)(=O)O)[C@H]6OS(=O)(=O)O)[C@H](OS(=O)(=O)O)[C@H]5OS(=O)(=O)O)CC[C@]4(C)[C@H]3CC[C@]12C` [pixatimod]: the “abundance of CD4+ or CD8+ T cells or NK cells in the spleens compared to control mice” value in data set [1] (day 11, spleens) was “little or no increase”. For the same compound, the “intratumoral NK cells” value in data set [1] (pixatimod alone, 4T1.2 tumors) is “didn’t significantly increase”. In addition, the “expression of IFN-γ and CD69 on NK cells” value in data set [2] is “increased”. Further, the Relative spleen weight entry in data set [3] is reported as “increased in a dose-dependent manner”. In data set [4], the spleen weight entry was “no significant effect”. Besides, the “dose up to which the compound was well tolerated” value in data set [5] (IV infusion, monotherapy clinical trial) is “up to 100 mg”. The “patients with treatment emergent adverse events possibly, likely, or certainly related to pixatimod” value in data set [5] (Phase Ia monotherapy trial) is on record as 20. Besides, the “estimated median duration of SD” value in data set [5] is recorded as 57 days. In addition, in data set [5] (of 16 patients with efficacy assessments), the “patients with stable disease (SD) at 8 weeks by RECIST 1.1” value is reported as “six”. Further, in data set [5] (required prophylactic paracetamol), the “doses inducing flu-like symptoms in patients” value is not below 50 mg. The “disease control rate at 8 weeks” value in data set [5] (six of sixteen assessed) is reported as 38%. In data set [6], the “exposure (AUC) required to achieve efficacy as a monotherapy” value was 687 µg·h/mL.
